Where no end group is shown, it is not given here.
Columns and labels:
[1] = Sub-acute oral toxicity of TP4; type: in vivo, C3H/HeN mice; conditions: 3-fold therapeutic doses orally for 14 days, observed days 1 to 28
Procedure: (§1) Acute toxicity was assessed in C3H/HeN mice with 6 animals per group, by single oral administration of TP4 (125 mg/kg). […] Subacute toxicity: animals were administered with TP4 (600 μg dose/day) for 14 days. During dose administration, the animals were observed every day for any signs of toxicity for 28 days test period. The morbidity, mortality, and other clinical signs were recorded and assessed.

[2] = Eye irritation test of TP4 in New Zealand White rabbits; type: in vivo; conditions: for Abnormality iris, grading / Chemosis, grading / Conjunctivae redness, grading / Corneal opacity, grading: rabbits, OECD 405 grading
Procedure: Healthy young adults rabbit eyes were treated with TP4, PBS (vehicle control), or 0.1% SDS (positive control). […] […] Clinical signs were recorded during the test period, and grades were assigned for ocular reactions during examination.

[3] = Dermal toxicity of TP4; type: in vivo, C3H/HeN mice
Procedure: TP4 (125 mg/kg) was applied onto the mouse skin (topical).

[4] = Acute oral toxicity of TP4; set-up: species or system C3H/HeN mice; conditions: single oral dose, 10-fold the in vivo therapeutic dose, 24 hours
Procedure: as §1

FIHHIIGGLFSAGKAIHRLIRRRRR [TP4, Nile tilapia piscidin 4]
clinical complications, sub-acute oral toxicity [1]: did not induce clinical complications
ocular appearance ([2]; rabbits treated with 50 mg/kg TP4 or SDS for 7 days, observed daily (FIG. 17A)): no ocular lesions were detected
Abnormality iris, grading ([2]; Day 1): 0
Chemosis, grading ([2]; Day 1): 0
Conjunctivae redness, grading ([2]; Day 1): 0
Corneal opacity, grading ([2]; Day 1): 0
Abnormality iris, grading ([2]; Day 3): 0
Chemosis, grading ([2]; Day 3): 0.1
Conjunctivae redness, grading ([2]; Day 3): 0
Corneal opacity, grading ([2]; Day 3): 0
Abnormality iris, grading ([2]; Day 5): 0
Chemosis, grading ([2]; Day 5): 0.1
Conjunctivae redness, grading ([2]; Day 5): 0.1
Corneal opacity, grading ([2]; Day 5): 0.1
Abnormality iris, grading ([2]; Day 7): 0
Chemosis, grading ([2]; Day 7): 0.1
Conjunctivae redness, grading ([2]; Day 7): 0
Corneal opacity, grading ([2]; Day 7): 0.1
Abnormality iris, grading ([2]; Recovery, Day 14): 0
Chemosis, grading ([2]; Recovery, Day 14): 0
Conjunctivae redness, grading ([2]; Recovery, Day 14): 0
Corneal opacity, grading ([2]; Recovery, Day 14): 0
dermal toxicity ([3]; dermal exposure, 14 days observation period): No mortality or damaging effects were observed
appearance of the skin ([3]; mice, 48 h post-exposure, 125 mg/kg TP4 or 20% SDS (FIG. 17B)): no obvious lesions were observed
clinical signs, acute oral toxicity [4]: did not exhibit any abnormal clinical signs

— patent publication US9901615B2, “Method for treatment of gastric ulcers” (priority 2015, dated 2018)
